{
  "source": "patent US10799530B1",
  "about": "“Composition and method for the prevention and treatment of obesity” (Vector Vitale IP LLC, priority 2019, dated 2020)",
  "assay_type_in_all_cases": "in vivo",
  "key": {"rats [1]": {"test_system": "rats", "assay": "Glucose tolerance test", "conditions": "fast overnight, one value per animal", "experimental": "A glucose tolerance test was performed to determine a potential effect of zinc isotope on the dynamics of glucose concentration in the blood flow. Experimental procedure: laboratory animals are given intragastric injections of either normal saline solution or zinc in saline solution (5 mg/kg) in a volume of 2 ml. After that, 60 minutes after the aforementioned injections, the basal level of glucose is measured and a glucose solution is injected in an amount of 3 g/kg in a volume of 2 ml using the same route of administration. The blood glucose levels are measured again 60 minutes after injecting the glucose solution."}, "rats [2]": {"test_system": "rats", "assay": "Serum insulin level after intraperitoneal administration", "conditions": "intact rats; 3750 μg of zinc per 1 kg intraperitoneally every other day, 7 injections", "experimental": "Animals are placed in cages, 4 per cage, with free access to food/water. […] Administration is performed every other day, in the amount of 7 injections per animal (intraperitoneal method of drug administration).\nSamples in volume of 100 μl were incubated in microplate wells at 4° C. overnight. […] Non-specific binding sites were blocked with a 5% fat-free milk blocking solution and incubated for 1 hour at 37° C. After washing, the separate wells of the microplate were loaded with primary rabbit anti-insulin antibodies and incubated for 1 hour at 37° C. After incubation, the microplate wells were washed and loaded with appropriate secondary antibodies conjugated to horseradish peroxidase and incubated for another 1 hour at 37° C. […] The optical density was measured at 492 nm. The insulin concentrations were calculated using the calibration curve generated under the given conditions and human insulin of known concentration.)"}, "rats [3]": {"test_system": "rats", "assay": "Body weight, food and water consumption after intraperitoneal administration", "conditions": "intact rats; 3750 μg of zinc per 1 kg intraperitoneally every other day, 7 injections", "procedure": "The current dose was calculated by zinc."}, "rats [4]": {"test_system": "rats", "assay": "Area of islets of Langerhans after intraperitoneal administration", "conditions": "intact rats, day 7 after the last administration", "experimental": "Animals are placed in cages, 4 per cage, with free access to food/water. […] Administration is performed every other day, in the amount of 7 injections per animal (intraperitoneal method of drug administration). The dose of the drug injected to each animal was calculated on the basis of the ratio: 3750 μg of zinc per 1 kg of animal body weight."}},
  "note": "Values joined by “and” are separate entries in the source; they are usually repeats but may differ in a detail not shown here. Equal values may be shown once.",
  "data": [
    {"compound": "CC(=O)[O-].CC(=O)[O-].[Zn+2]", "note": "[Zn acetate, Zinc acetate, reference compound]", "values": [
      {"measurement": "Glucose tolerance test, 60 min (1 h after glucose administration)", "setting": "rats [1]; effector dose 5 mg/kg in 2 ml, glucose 3 g/kg body weight in 2 ml", "result": "also dropped, though not so strongly and 7.2 and 6.9 and 7.3 and 6.8"},
      {"measurement": "Glucose tolerance test, 0 min (1 h after effector administration)", "setting": "rats [1]; effector dose 5 mg/kg in a volume of 2 ml", "result": "4.6 and 5.2 (2×) and 4.9 and 5.1"},
      {"measurement": "Serum insulin levels at day 7 after the withdrawal", "setting": "rats [2]", "result": "drop in the insulin levels to the value of those of intact/control animals"},
      {"measurement": "Serum insulin levels on the first day after the drug withdrawal", "setting": "rats [2]", "result": "significant increase"}
    ]},
    {"compound": "zinc asparaginate [^64Zne]", "values": [
      {"measurement": "Body weight of rats", "setting": "rats [3]", "result": "significant increase in the body weight"},
      {"measurement": "Serum insulin levels at day 7 after the withdrawal", "setting": "rats [2]", "result": "significant increase in the insulin levels"},
      {"measurement": "Serum insulin levels on the first day after the drug withdrawal", "setting": "rats [2]", "result": "slightly higher than in the group of intact animals"},
      {"measurement": "Area of islets of Langerhans compared to the control group and the zinc acetate group", "setting": "rats [4]", "result": "significant increase in the islet area"}
    ]}
  ]
}
